Measured values: PMC4817054, “Expansion of a bitter taste receptor family in a polyphagous insect herbivore” (Scientific Reports, 2016)

Test system: HarmGR195
Settings: agonist; HarmGR195 expressed alone; SEM, N = 3; HBSS

EC50: 43 ± 7 mM
SMILES: O=C(O)[C@@H]1CCCN1 [proline]
